Where two headings read alike, the source gives them in different places.
Legend:
[1] = tested on: Sprague-Dawley albino rats, light-induced photoreceptor cell death; type: in vivo; settings: Day 23
Text: The aim of this study was to investigate the dose effect of XG-102 on light-induced photoreceptor cell death.
50 male Rat (Sprague-Dawley (albinos rat); approximately 8 weeks; 200-250 g (on ordering)) have been used. Rats are most commonly used in this experimental model. Animals were examined before study, and particular attention was paid to the eyes. Animals were held in observation for 2 weeks following their arrival. Animals were observed daily for signs of illness. Only healthy animals with no ocular abnormalities were accepted for use in experiments. Animals were housed individually in standard cages (420×270×190 mm)^ii. All animals were housed under identical environmental conditions. The temperature was held at 22±2° C. and the relative humidity at 55±10%. Rooms were continuously ventilated (15 times per hour). A cycle of 12 hours light (200-300 lx) and 12 hours darkness was automatically controlled. These parameters were continuously controlled and recorded. Throughout the study, animals had free access to food and water. They were fed a standard dry pellet diet. Tap water was available ad libitum from plastic bottles.
Forty-eight (48) rats were randomly divided into six (6) groups of eight (8) animals each. Test item (XG-102: 30 mg/ml, 3 mg/ml, and 0.3 mg/ml) and vehicle (0.9% NaCl) were administered by intravitreal injection in right eyes the day before induction. The reference (Phenyl-N-test-Butylnitrone (PBN) (50 mg/kg)) and vehicle were intraperitoneally injected 30 min before induction then, 3 times during 12 hours of light exposition, then once after induction. Animals were placed in constant light (7000 lux) for 24 h. Electroretinograms (ERG) were recorded before light treatment and on days 9, 16 and 23 after induction. Eyes were then taken for histology and outer nuclear layer (ONL) thickness assessment. The table below summarizes the allocation of animals in treatment groups:
For the intravitreal injection animals were anesthetized by intramuscular injection of a mixture of xylazine/ketamine. Test item (5 μl) and vehicle (5 μl) were injected in the right eye. The injection was performed under an operating microscope in the supratemporal area at pars plana using a 33G-needle mounted on a 50 μl Hamilton. The filled syringe was mounted into the UltraMicroPump III to achieve accurate injection in microliter range. Reference and vehicle were injected intraperitoneally at a dose volume of 2.5 ml/kg using a 30G-needle mounted on a 1 ml-syringe.
Light Exposure: The rats that had been dark-adapted overnight were exposed for 24 hours to a continuous white fluorescent light (7000 Ix) in clear plastic cages. Each cage contained one rat. After exposure, the rats returned to rearing cyclic light conditions.
ERG was recorded before induction and 7, 14 and 21 days after cessation of exposure (Days 9, 16 and 23) on right eyes of dark-adapted and anesthetized animals. The latency times (for a- and b-wave) and the a-wave and b-wave amplitudes were measured for each ERG; the latency times were expressed as millisecond and the a-wave and b-wave as a percentage of the baseline value obtained before light exposure. 15 min before measurement 10 μl Mydriaticum® (0.5% tropicamide) were instilled for pupillary dilatation.
ERG Parameters: • Color: white maximum. • Maximum intensity: 2.6 cd·s/m^2 (0 dB); Duration 0.24 ms; number of flash: 1. • Filter: 50 Hz. • Impedence Threshold: 90 kΩ.
Measurement of the ONL Thickness: After ERG testing, animal was euthanized by an overdose of pentobarbital and the right eyes were enucleated, fixed and embedded in paraffin. Sections (5 μm thick) were performed along the vertical meridian and stained with Trichrome-Masson. The vertical meridian included the optic nerve.
Group mean values and standard deviation were calculated. A statistical Mann and Whitney test was used to evaluate the differences between pair-wise groups. For comparison between time-point into each vehicle groups, a Friedman test was used. […]

rabbits = assay: Ocular MTD studies, sub-conjunctival administration; type: in vivo, rabbit
Text: Despite technical advances in ocular surgery, the physical trauma of this procedure continues to induce post-operative ocular inflammation warranting treatment. In ocular tissue, arachidonic acid is metabolized by cyclooxygenase (COX) to prostaglandins (PG) which are the most important lipid-derived mediators of inflammation. Surgical trauma causes a trigger of the arachidonic acid cascade which in turn generates PGs by activation of COX-1 and COX-2. Phospholipids in the cell membrane are the substrate for phospholipase A to generate arachidonic acid from which a family of chemically distinct PGs and leukotriens are produced. The ‘golden standard’ for the treatment of ocular inflammation are topical corticosteroids and/or Non-Steroidal Anti-inflammatory Drugs (NSAIDs). Side effects reported with (short-term) corticosteroid use include cataract formation, increased Intra Ocular Pressure (IOP), increased susceptibility to viral infections and retardation of the corneal epithelial and stromal wound healing. In addition, prolonged treatment with corticosteroids have been known to induce systemic side effects such as glucose impairment, hypertension, development of glaucoma, visual acuity defects, loss of visual field, and posterior subcapsular cataract formation. […]

CC(C)C[C@@H](NC(=O)[C@@H](Cc1ccccc1)NC(=O)[C@H]1CCCN1C(=O)[C@@H](CCC(N)=O)NC(=O)[C@H](NC(=O)[C@H]1CCCN1C(=O)[C@@H](CCCNC(=N)N)NC(=O)[C@@H](CO)NC(=O)[C@@H](CCC(N)=O)NC(=O)[C@H](N)CC(=O)O)C(C)C)C(=O)N[C@H](CC(N)=O)C(=O)N[C@H](CC(C)C)C(=O)N[C@@H](C(=O)N[C@@H](C(=O)N1CCC[C@@H]1C(=O)N[C@H](CCCNC(=N)N)C(=O)N[C@H](CCCCN)C(=O)N1CCC[C@@H]1C(=O)N[C@H](CCCNC(=N)N)C(=O)N1CCC[C@@H]1C(=O)N1CCC[C@@H]1C(=O)N[C@H](CCCNC(=N)N)C(=O)N[C@H](CCCNC(=N)N)C(=O)N[C@H](CCCNC(=N)N)C(=O)N[C@H](CCC(N)=O)C(=O)N[C@H](CCCNC(=N)N)C(=O)N[C@H](CCCNC(=N)N)C(=O)N[C@H](CCCCN)C(=O)N[C@H](CCCCN)C(=O)N[C@H](CCCNC(=N)N)C(=O)NCC(=O)O)[C@H](C)O)[C@H](C)O [XG-102]
protection of ONL thickness ([1]; high dose XG-102): No protection was observed with high dose XG-102
recovery of the a-wave (% of baseline) ([1]; low dose 1.5 μg/eye): 48.3%
loss of the mean ONL thickness ([1]; low dose XG-102): 40%
loss of the mean ONL thickness ([1]; mid dose XG-102): 40%
No Observed Adverse Effect Level (NOAEL) (rabbits): ~600 µg
